Source: patent publication US4874773A, “3-Aminocarbonyl-1,4-dihydropyridine-5-carboxylic acid compounds, and pharmaceutical composition containing the same” (priority 1985, dated 1989)
Entries after “also recorded” stand apart in the source; their conditions may differ.

Key:
[1] = test system: isolated aorta; assay: Experiment 3 Relaxing activity on the isolated aorta (30 mM KCl contracted); set-up: species or system Japanese white rabbit; conditions: for EC50: Oryctolagus cuniculus, 30 mM KCl contraction, maximum relaxation by papaverine = 100%, read-out: EC50 (concentration for 50% relaxation); for relaxing / vasodilating activity on isolated aorta (in words): Table 8, comparison with nifedipine and nicardipine hydrochloride, etc. where stated
Experimental: Japanese white rabbit (weighing 2.3-2.7 kg) was sacrificed by bleeding from common carotid artery. Immediately, the aorta was isolated and cut into a sprial strip. The strip preparation was vertically suspended under a resting tension of 2.0 g in a tissue bath containing 20 ml of modified Ringer solution while bubbling with a mixture of 95% O2 +5% CO2 by connecting one end of the strip to a lever of the above-mentioned FD pick up. The aortic strip was contracted with 30 mM KCl. When the contraction became constant, the test compound was accumulatively administered, and the relaxing effect was measured. After the final treatment, 10^-4T M papaverine was administered and the maximum relaxation obtained thereby was taken as 100%. In comparison with the maximum relaxation obtained by papaverine, the rate of relaxation by the test compounds was evaluated, and the concentration of the test compounds for obtaining 50% relaxation (EC50) was calculated.
The test compound was dissolved in ethanol, and the solution was diluted in 100 to 1×10^4 folds with a nutrient solution, and the diluted solution was administered.

[2] = test system: Spontaneously hypertensive male rats; assay: Experiment 1-1 Hypotensive activity (oral, conscious spontaneously hypertensive rats); assay type: in vivo, rat; conditions: for Recovering time / Time for recovering 1/2 of max. hypotension / Time until reaching to max. hypotension / Maximum hypotension: 10 mg/kg oral; for Maximum hypotension: mean blood pressure; for hypotensive activity (in words): Table 4, comparison with nifedipine and nicardipine hydrochloride where stated
Experimental: Spontaneously hypertensive male rats (13-15 week age, one group: 3 rats) were used. […] The rats were fixed in a Howlman cage without fasting, and the femoral arterial pressure was measured by a direct method without anesthesia with a cannula which was previously inserted into the femoral artery of the animal, via a pressure transducer (MPU-0.5, manufactured by Nippon Koden K.K.). The test compounds were orally administered in the form of a suspension in 0.5% methyl cellulose solution in a dose of 10 mg/kg (in some compounds, 3 mg/kg). In the control group, only 0.5% methyl cellulose solution was administered likewise. The blood pressure was measured for 5 hours after the administration of test compounds.

[3] = test system: isolated heart; assay: Experiment 2-1 Activity on isolated heart; set-up: species or system Japanese white rabbit; conditions: for activation at 3 µg/heart / inhibition at 3 µg/heart, 3 µg/heart / inhibition at 3 µg/heart: Oryctolagus cuniculus, 3 μg/heart; for activation at 3 µg/heart: read-out: Increase of coronary perfusion; for inhibition at 3 µg/heart, 3 µg/heart: read-out: Inhibitory rate of systole; for inhibition at 3 µg/heart: read-out: Reducing rate of heart pulse
Experimental: Japanese white rabbit (weighing 2.2-2.5 kg) was anesthetized by introvenous injection of nembutal (20 mg/kg) and then sacrificed by bleeding from common carotid artery. […] After stabilizing the heart preparation for 90 minutes, the test compound was administered. There were measured the perfusion volume with a drop-counting meter (ET-600G type, manufactured by Nippon Koden K.K.) and the heart pulse and the contractility via a force-displacement transducer (FD pick up, SB-IT type, manufactured by Nippon Koden K.K.) (for measuring heart pulse, an instant pulse meter (AT-601G type, minufactured by Nippon Koden K.K.) being further used).

Compound	EC50 [1] [nM]	relaxing / vasodilating activity on isolated aorta (in words) [1]	Recovering time [2] [h]	Time for recovering 1/2 of max. hypotension [2] [h]	Time until reaching to max. hypotension [2] [min]	Maximum hypotension [2] [mmHg]	hypotensive activity (in words) [2]	activation at 3 µg/heart [3] [%]	inhibition at 3 µg/heart, 3 µg/heart [3] [%]	inhibition at 3 µg/heart [3] [%]	inhibitions on the heart pulse and contactility (in words) ([3]; Table 6)	coronary vasodilating activity (in words) ([3]; Table 6, comparison with nifedipine and nicardipine hydrochloride, etc.)
CCCCCCCOC(=O)C1=C(C)NC(C)=C(C(=O)NC(C)C)C1c1ccccc1[N+](=O)[O-] (centres unmarked) [Example 1, n-heptyl 2,6-dimethyl-3-isopropylaminocarbonyl-4-(o-nitrophenyl)-1,4-dihydropyridine-5-carboxylate]	580	somewhat weak vasodilating activity	> 5.0	> 5.0	30	78	the same or more potent activity with longer duration; also recorded: potent hypotensive activity	25	40	15	moderate inhibitions on the heart pulse and contactility	–
COC(=O)C1=C(C)NC(C)=C(C(=O)NC(C)C)C1c1ccccc1[N+](=O)[O-] (centres unmarked) [Example 5, methyl 2,6-dimethyl-3-isopropylaminocarbonyl-4-(o-nitrophenyl)-1,4-dihydropyridine-5-carboxylate]	20	the same or more potent activity	> 5.0	5.0	15	70	the same or more potent activity with longer duration	28	15	25	–	the same or more potent coronary vasodilating activity with longer duration
CCCCOC(=O)C1=C(C)NC(C)=C(C(=O)NC(C)C)C1c1ccccc1[N+](=O)[O-] (centres unmarked) [Example 6, n-butyl 2,6-dimethyl-3-isopropylaminocarbonyl-4-(o-nitrophenyl)-1,4-dihydropyridine-5-carboxylate]	12	the same or more potent activity	5.0	3.5	15	57	–	35	25	13	–	–
CCCCCOC(=O)C1=C(C)NC(C)=C(C(=O)NC(C)C)C1c1ccccc1[N+](=O)[O-] (centres unmarked) [Example 8, n-pentyl 2,6-dimethyl-3-isopropylaminocarbonyl-4-(o-nitrophenyl)-1,4-dihydropyridine-5-carboxylate]	30	the same or more potent activity	5.0	4.0	15	30	–	35	13	5	–	–
CCOC(=O)C1=C(C)NC(C)=C(C(=O)NC(C)C)C1c1ccccc1[N+](=O)[O-] (centres unmarked) [Example 43]	18	the same or more potent activity	5.0	2.5	15	68	–	35	35	40	–	–
CCCOC(=O)C1=C(C)NC(C)=C(C(=O)NC(C)C)C1c1ccccc1[N+](=O)[O-] (centres unmarked) [Example 44]	17	the same or more potent activity	4.0	2.5	15	60	–	30	20	16	–	–
CC1=C(C(=O)NC(C)C)C(c2ccccc2[N+](=O)[O-])C(C(=O)OC(C)C)=C(C)N1 (centres unmarked) [Example 45]	170	–	1.5	0.5	15	15	–	0	0	0	–	–
CC1=C(C(=O)NC(C)C)C(c2ccccc2[N+](=O)[O-])C(C(=O)OCC(C)C)=C(C)N1 (centres unmarked) [Example 46]	70	the same or more potent activity	1.5	0.5	15	10	–	14	9	3	–	–
CC1=C(C(=O)NC(C)C)C(c2ccccc2[N+](=O)[O-])C(C(=O)OCCC(C)C)=C(C)N1 (centres unmarked) [Example 47]	20	the same or more potent activity	3.0	2.0	30	32	–	35	5	11	–	–
CC1=C(C(=O)NC(C)C)C(c2ccccc2[N+](=O)[O-])C(C(=O)OCCCC(C)C)=C(C)N1 (centres unmarked) [Example 51]	130	–	> 5.0	3.0	30	40	–	40	30	25	–	–
CCCCCCCCCCOC(=O)C1=C(C)NC(C)=C(C(=O)NC(C)C)C1c1ccccc1[N+](=O)[O-] (centres unmarked) [Example 52]	420	–	1.0	0.5	15	12	–	20	45	15	moderate inhibitions on the heart pulse and contactility	–
CCCCOC(=O)C1=C(C)NC(C)=C(C(=O)NC(C)C)C1c1cccc([N+](=O)[O-])c1 (centres unmarked) [Example 64]	150	–	5.0	2.0	30	57	–	12	0	4	–	–
CC1=C(C(=O)NC(C)C)C(c2cccc([N+](=O)[O-])c2)C(C(=O)OCC(C)C)=C(C)N1 (centres unmarked) [Example 65]	130	–	2.5	1.5	30	50	–	8	5	8	–	–
CCCCOC(=O)C1=C(C)NC(C)=C(C(=O)NCCC)C1c1cccc([N+](=O)[O-])c1 (centres unmarked) [Example 68]	100	–	1.0	0.5	15	5	–	29	6	11	–	–
